Measurements reported in PMC11995724, “Antibiotic target discovery by integrated phenotypic and activity-based profiling of electrophilic fragments” (Cell chemical biology, 2025).

Assay: in vitro
Settings: human, hek293t cells

CC(NC(=O)C(C#N)=Cc1cccc(F)c1)c1ccccc1 (centres unmarked) [8-L18, 2-cyano-3-(3-fluorophenyl)-N-(1-phenylethyl)prop-2-enamide]
viability at 48 h, 25 µM: 34.6%

CCCn1c(C)cc(C=C(C#N)C(=O)Nc2cccc(F)c2)c1C [8-L19, 2-cyano-3-(2,5-dimethyl-1-propyl-1H-pyrrol-3-yl)-N-(3-fluorophenyl)prop-2-enamide]
viability at 48 h, 25 µM: 103%

C=CCNC(=O)C(C#N)=Cc1ccc(-c2ccc(F)cc2)o1 [8-L20, 2-cyano-3-[5-(4-fluorophenyl)furan-2-yl]-N-(prop-2-en-1-yl)prop-2-enamide]
viability at 48 h, 25 µM: 114%

N#CC(=Cc1ccc(Cl)cc1)C(N)=O [8-L21, 3-(4-chlorophenyl)-2-cyanoprop-2-enamide]
viability at 48 h, 25 µM: 112%

N#CC(=Cc1ccc(OC(F)F)cc1)C(=O)N1CCCC1 [8-L22, 3-[4-(difluoromethoxy)phenyl]-2-(pyrrolidine-1-carbonyl)prop-2-enenitrile]
viability at 48 h, 25 µM: 105%

COc1ccc(C=C(C#N)C(=O)Nc2cccc(C)c2)cc1 [8-M03, 2-cyano-3-(4-methoxyphenyl)-N-(3-methylphenyl)prop-2-enamide]
viability at 48 h, 25 µM: 95.7%

CN1C(=CC=C(C#N)C(=O)NCC2CCCO2)C(C)(C)c2ccccc21 (centres unmarked) [8-M04, 2-cyano-N-[(oxolan-2-yl)methyl]-4-(1,3,3-trimethyl-2,3-dihydro-1H-indol-2-ylidene)but-2-enamide]
viability at 48 h, 25 µM: 77.7%

COc1ccc(C=C(C#N)C(=O)Nc2cccnc2)cc1OC [8-M05, 2-cyano-3-(3,4-dimethoxyphenyl)-N-(pyridin-3-yl)prop-2-enamide]
viability at 48 h, 25 µM: 118%

CCOc1cc(C=C(C#N)C(=O)N2CCCC2)cc(Cl)c1O [8-M06, 3-(3-chloro-5-ethoxy-4-hydroxyphenyl)-2-(pyrrolidine-1-carbonyl)prop-2-enenitrile]
viability at 48 h, 25 µM: 92.1%

Cc1ccc(C)c(NC(=O)C(C#N)=Cc2cccn2C)c1 [8-M07, 2-cyano-N-(2,5-dimethylphenyl)-3-(1-methyl-1H-pyrrol-2-yl)prop-2-enamide]
viability at 48 h, 25 µM: 87.8%

Cc1n[nH]c(C)c1C=C(C#N)C(=O)Nc1cc(Cl)cc(Cl)c1 [8-M08, 2-cyano-N-(3,5-dichlorophenyl)-3-(3,5-dimethyl-1H-pyrazol-4-yl)prop-2-enamide]
viability at 48 h, 25 µM: 58.6%

CCN1C(=O)CSC1=C(C#N)C(N)=O [8-M09, 2-cyano-2-(3-ethyl-4-oxo-1,3-thiazolidin-2-ylidene)acetamide]
viability at 48 h, 25 µM: 90.5%

N#CC(=Cc1cnn(-c2ccc(Cl)cc2)c1)C(=O)NC1CCCC1 [8-M10, 3-[1-(4-chlorophenyl)-1H-pyrazol-4-yl]-2-cyano-N-cyclopentylprop-2-enamide]
viability at 48 h, 25 µM: 83.3%

CC(=O)Nc1ccc(C=C(C#N)C(=O)Nc2ccccc2Cl)cc1 [8-M11, N-(2-chlorophenyl)-2-cyano-3-(4-acetamidophenyl)prop-2-enamide]
viability at 48 h, 25 µM: 86.4%

N#CC(=Cc1csnn1)C(=O)Nc1ccc(Oc2ccccc2)cc1 [8-M12, 2-cyano-N-(4-phenoxyphenyl)-3-(1,2,3-thiadiazol-4-yl)prop-2-enamide]
viability at 48 h, 25 µM: 43%

CC(=O)Nc1ccc(C=C(C#N)C(=O)Nc2c(C)cc(C)cc2C)cc1 [8-M13, 2-cyano-3-(4-acetamidophenyl)-N-(2,4,6-trimethylphenyl)prop-2-enamide]
viability at 48 h, 25 µM: 87.7%

Cc1ccc(C=C(C#N)C(=O)Nc2cccc3ccccc23)cc1 [8-M14, 2-cyano-3-(4-methylphenyl)-N-(naphthalen-1-yl)prop-2-enamide]
viability at 48 h, 25 µM: 121%

CC(NC(=O)C(C#N)=Cc1ccc2c(c1)OCCO2)c1ccccc1 (centres unmarked) [8-M15, 2-cyano-3-(2,3-dihydro-1,4-benzodioxin-6-yl)-N-(1-phenylethyl)prop-2-enamide]
viability at 48 h, 25 µM: 64.3%

CC(=O)N(c1ccc(C)c(C)c1)c1nc(C=C(C#N)C(N)=O)cs1 [8-M16, 2-cyano-3-{2-[N-(3,4-dimethylphenyl)acetamido]-1,3-thiazol-4-yl}prop-2-enamide]
viability at 48 h, 25 µM: 85.9%

CC(C)Oc1ccccc1C=C(C#N)C(=O)Nc1ccccc1 [8-M17, 2-cyano-N-phenyl-3-[2-(propan-2-yloxy)phenyl]prop-2-enamide]
viability at 48 h, 25 µM: 78.4%

COc1ccc(NC(=O)C(C#N)=CC=Cc2ccccc2)cc1Cl [8-M18, N-(3-chloro-4-methoxyphenyl)-2-cyano-5-phenylpenta-2,4-dienamide]
viability at 48 h, 25 µM: 75.7%

COc1cc(C=C(C#N)C(=O)Nc2nccs2)cc(OC)c1O [8-M19, 2-cyano-3-(4-hydroxy-3,5-dimethoxyphenyl)-N-(1,3-thiazol-2-yl)prop-2-enamide]
viability at 48 h, 25 µM: 86.3%

CCc1ccc(NC(=O)C(C#N)=Cc2ccc(F)c(C#N)c2)cc1 [8-M20, 2-cyano-3-(3-cyano-4-fluorophenyl)-N-(4-ethylphenyl)prop-2-enamide]
viability at 48 h, 25 µM: 23.7%

Cc1cccc(C=C(C#N)C(=O)Nc2ccc(C(=O)O)cc2)c1 [8-M21, 4-[2-cyano-3-(3-methylphenyl)prop-2-enamido]benzoic acid]
viability at 48 h, 25 µM: 91.6%

N#CC(=Cc1ccc(Cl)cc1Cl)C(=O)Nc1ccncc1 [8-M22, 2-cyano-3-(2,4-dichlorophenyl)-N-(pyridin-4-yl)prop-2-enamide]
viability at 48 h, 25 µM: 67%

N#CC(=Cc1cccc(O)c1)C(=O)NCCc1ccccc1 [8-N03, 2-cyano-3-(3-hydroxyphenyl)-N-(2-phenylethyl)prop-2-enamide]
viability at 48 h, 25 µM: 101%

COc1ccc(NC(=O)C(C#N)=Cc2cccc(Cl)c2Cl)cc1 [8-N04, 2-cyano-3-(2,3-dichlorophenyl)-N-(4-methoxyphenyl)prop-2-enamide]
viability at 48 h, 25 µM: 74.8%

Cc1ccccc1NC(=O)C(C#N)=Cc1ccccc1Cl [8-N05, 3-(2-chlorophenyl)-2-cyano-N-(2-methylphenyl)prop-2-enamide]
viability at 48 h, 25 µM: 47.9%

COc1cc(C=C(C#N)C(=O)Nc2ccc3c(c2)OCCO3)ccc1O [8-N06, 2-cyano-N-(2,3-dihydro-1,4-benzodioxin-6-yl)-3-(4-hydroxy-3-methoxyphenyl)prop-2-enamide]
viability at 48 h, 25 µM: 91.5%

CCOc1ccc(NC(=O)C(C#N)=Cc2ccc(F)cc2)cc1 [8-N07, 2-cyano-N-(4-ethoxyphenyl)-3-(4-fluorophenyl)prop-2-enamide]
viability at 48 h, 25 µM: 102%

N#CC(=CC1=Cc2ccccc2OC1)C(=O)Nc1ccc(C(=O)O)cc1 [8-N08, 4-[3-(2H-chromen-3-yl)-2-cyanoprop-2-enamido]benzoic acid]
viability at 48 h, 25 µM: 97.6%

CNc1ccc(C=C(C#N)C(=O)Nc2ccccc2F)cc1[N+](=O)[O-] [8-N09, 2-cyano-N-(2-fluorophenyl)-3-[4-(methylamino)-3-nitrophenyl]prop-2-enamide]
viability at 48 h, 25 µM: 110%

CC(NC(=O)C(C#N)=Cc1cnn(C)c1)c1ccccc1 (centres unmarked) [8-N10, 2-cyano-3-(1-methyl-1H-pyrazol-4-yl)-N-(1-phenylethyl)prop-2-enamide]
viability at 48 h, 25 µM: 97%

CSc1ccc(C=C(C#N)C(=O)Nc2cccc(Cl)c2C)cc1 [8-N11, N-(3-chloro-2-methylphenyl)-2-cyano-3-[4-(methylsulfanyl)phenyl]prop-2-enamide]
viability at 48 h, 25 µM: 103%

N#CC(=Cc1c2ccccc2c(Cl)c2ccccc12)C(N)=O [8-N12, 3-(10-chloroanthracen-9-yl)-2-cyanoprop-2-enamide]
viability at 48 h, 25 µM: 69.3%

CCCCNC(=O)C(C#N)=Cc1cccc2ccccc12 [8-N13, N-butyl-2-cyano-3-(naphthalen-1-yl)prop-2-enamide]
viability at 48 h, 25 µM: 112%

COc1ccc(O)c(C=C(C#N)C(=O)Nc2cccc3ccccc23)c1 [8-N14, 2-cyano-3-(2-hydroxy-5-methoxyphenyl)-N-(naphthalen-1-yl)prop-2-enamide]
viability at 48 h, 25 µM: 117%

N#CC(=Cc1cccc2ccccc12)C(=O)NCc1ccco1 [8-N15, 2-cyano-N-[(furan-2-yl)methyl]-3-(naphthalen-1-yl)prop-2-enamide]
viability at 48 h, 25 µM: 91%

CC(=O)Nc1ccc(C=C(C#N)C(=O)NC2CCCCC2)cc1 [8-N16, 2-cyano-N-cyclohexyl-3-(4-acetamidophenyl)prop-2-enamide]
viability at 48 h, 25 µM: 95.6%

N#CC(=Cc1ccncc1)C(=O)Nc1ccccc1Cl [8-N17, N-(2-chlorophenyl)-2-cyano-3-(pyridin-4-yl)prop-2-enamide]
viability at 48 h, 25 µM: 112%

N#CC(=Cc1cn(-c2ccccc2)nc1-c1ccccc1Cl)C(N)=O [8-N18, 3-[3-(2-chlorophenyl)-1-phenyl-1H-pyrazol-4-yl]-2-cyanoprop-2-enamide]
viability at 48 h, 25 µM: 91.5%

CCCn1c(C)cc(C=C(C#N)C(=O)Nc2cccc(C#N)c2)c1C [8-N19, 2-cyano-N-(3-cyanophenyl)-3-(2,5-dimethyl-1-propyl-1H-pyrrol-3-yl)prop-2-enamide]
viability at 48 h, 25 µM: 107%

CC(NC(=O)C(C#N)=Cc1ccccc1)C12CC3CC(CC(C3)C1)C2 (centres unmarked) [8-N20, N-[1-(adamantan-1-yl)ethyl]-2-cyano-3-phenylprop-2-enamide]
viability at 48 h, 25 µM: 13.9%

N#CC(=Cc1ccco1)C(=O)NC1CC1 [8-N21, 2-cyano-N-cyclopropyl-3-(furan-2-yl)prop-2-enamide]
viability at 48 h, 25 µM: 112%

COc1cc(C=C(C#N)C(=O)Nc2cccc(C)c2)c2c(c1)CC(C)O2 (centres unmarked) [8-N22, 2-cyano-3-(5-methoxy-2-methyl-2,3-dihydro-1-benzofuran-7-yl)-N-(3-methylphenyl)prop-2-enamide]
viability at 48 h, 25 µM: 83.2%

N#CC(=Cc1ccc(-c2ccc(Cl)cc2)o1)C(=O)Nc1ccccc1 [8-O03, 3-[5-(4-chlorophenyl)furan-2-yl]-2-cyano-N-phenylprop-2-enamide]
viability at 48 h, 25 µM: 58.3%

N#CC(=Cc1ccc(N2CCCCC2)cc1)C(=O)NC1CC1 [8-O04, 2-cyano-N-cyclopropyl-3-[4-(piperidin-1-yl)phenyl]prop-2-enamide]
viability at 48 h, 25 µM: 82.3%

N#CC(=Cc1ccc(O)c([N+](=O)[O-])c1)C(=O)NCc1ccccc1 [8-O05, N-benzyl-2-cyano-3-(4-hydroxy-3-nitrophenyl)prop-2-enamide]
viability at 48 h, 25 µM: 98.7%

CC(NC(=O)C(C#N)=Cc1cc(F)ccc1F)c1ccccc1 (centres unmarked) [8-O06, 2-cyano-3-(2,5-difluorophenyl)-N-(1-phenylethyl)prop-2-enamide]
viability at 48 h, 25 µM: 25.3%

C=CCNC(=O)C(C#N)=Cc1ccc(C#N)cc1 [8-O07, 2-cyano-3-(4-cyanophenyl)-N-(prop-2-en-1-yl)prop-2-enamide]
viability at 48 h, 25 µM: 85.6%
